Assay results as given in PubChem BioAssay (NCI).
Several values for one entry are separate records, joined by “and”; a condition that tells them apart may be missing. Equal entries are not always repeated.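 Assay format: 96-well plates, 48-hour exposure. Abbreviation: GI50, concentration required for 50% inhibition of growth. At the TGI there is no net growth.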

Key:
Assay in all cases: inhibition of tumour cell growth, NCI panel, 48 h
[1] = system: MALME-3M melanoma
[2] = system: RPMI-8226 leukemia
[3] = system: SF-539 CNS
[4] = system: ACHN renal
[5] = system: SNB-19 CNS
[6] = system: SF-295 CNS
[7] = system: SK-MEL-5 melanoma
[8] = system: PC-3 prostate
[9] = system: HS 578T breast
[10] = system: MDA-MB-231 breast

SMILES | TGI [1] | TGI [2] | TGI [3] | TGI [4] | TGI [5] | TGI [6] | TGI [7] | GI50 [1] | GI50 [4] | GI50 [8] | TGI [8] | GI50 [3] | GI50 [9] | TGI [9] | GI50 [5] | GI50 [6] | GI50 [10] | TGI [10] | GI50 [7] | GI50 [2]
COc1cccc(-c2cc(=O)c3cc4c(cc3[nH]2)OCO4)c1 | > 67.6 µM | > 100 µM | 0.317 µM | > 48.2 µM | > 45.1 µM | 0.828 µM | 0.327 µM |  |  |  |  |  |  |  |  |  |  |  |  | 
COc1cc(C(=O)N[C@H]2CCc3cc(OC)c(OC)c(OC)c3-c3ccc(SC)c(=O)cc32)cc(OC)c1OC | 17.5 µM and 14.9 µM | 25 µM and > 100 µM | 0.0145 µM | 25 µM and > 100 µM | > 100 µM | 0.0684 µM and 0.0328 µM | 0.324 µM and 0.0331 µM | 22.4 nM | 80.4 nM |  |  |  |  |  |  |  |  |  |  | 
CCOc1cccc2c1N[S@@](=O)S2 | > 100 µM | > 100 µM | > 100 µM | > 100 µM | > 100 µM | > 100 µM |  |  |  |  |  |  |  |  |  |  |  |  |  | 
C=C1C(=O)O[C@H]2[C@H]1CC/C(COC(=O)NCc1ccc(Cn3c(=O)sn(CCCCC)c3=O)cc1)=C\CC[C@@]1(C)O[C@@H]21 | 3.4 µM |  | 3.2 µM | 3.14 µM | 17.5 µM | 25.1 µM | 14.3 µM | 1610 nM | 1680 nM | 1920 nM | 3.8 µM | 1640 nM | 2.79 µM | 14 µM | 5.06 µM | 12.5 µM | 1720 nM | 3.46 µM | 3920 nM | 
COC(=O)C(C(=O)C(=O)Nc1ccc(C)cc1C)c1csc(-n2nc(-c3ccccc3)cc2-c2ccccc2)n1 (configuration not stated) | > 100 µM |  |  | > 100 µM | > 100 µM |  |  |  |  |  |  |  |  |  |  |  |  |  |  | 
O=c1c2c(-c3ccccc3)c3ccccc3nc2cnn1-c1ccccc1 | > 100 µM | > 100 µM | > 100 µM | > 100 µM | > 100 µM | > 100 µM | > 100 µM |  |  |  |  |  |  |  |  |  |  |  |  | 
CC(C)(C)NCC(O)COc1c(Br)c(Br)c(Br)c2c1OC(C)(C)C2 (configuration not stated) | 3.24 µM | 3.09 µM | 3.18 µM | 3.35 µM |  | 3.95 µM | 2.89 µM | 1710 nM | 1900 nM | 1660 nM | 3.18 µM | 1670 nM |  |  |  | 2.26 µM | 1540 nM | 3.01 µM | 1550 nM | 1450 nM
C=C1C(=O)C23[C@H](O)C1CC[C@H]2[C@]12COC3(O)[C@@H](O)[C@@H]1C(C)(C)CC[C@@H]2O | 6.94 µM | 29.3 µM | 22.6 µM | 30.2 µM | 32.7 µM | 32.2 µM | 28.6 µM |  |  |  |  |  |  |  |  |  |  |  |  | 
CCCC(=O)N[C@H]1CCc2cc(OC)c(OC)c(OC)c2-c2ccc(SC)c(=O)cc21 | > 100 µM | > 100 µM | < 0.01 µM | > 57.1 µM | > 94.6 µM | < 0.01 µM | < 0.0989 µM |  |  |  | > 100 µM |  |  |  |  |  |  |  |  | 
COC(=O)c1cc(=O)nc2cc3cccccc3n12 | > 100 µM | > 100 µM | > 100 µM | > 100 µM | > 100 µM | > 100 µM | > 100 µM |  |  |  |  |  |  |  |  |  |  |  |  | 
ClCc1cccc(Cn2cnc3c(Cl)nc(Cl)nc32)c1 | 4.47 µM | > 100 µM | 14.1 µM | 3.72 µM | 4.17 µM | 17.1 µM | 3.05 µM | 2020 nM | 1910 nM | 2380 nM | 5.02 µM | 2200 nM |  |  | 1.96 µM | 4.37 µM | 1950 nM | 3.76 µM | 1590 nM | 3290 nM
CC1=Nc2ccccc2SC(c2c(Cl)cccc2Cl)C1 (configuration not stated) | 3.29 µM | 3.09 µM | 2.72 µM | 3.19 µM | 2.7 µM | 2.79 µM | 3.06 µM |  |  |  |  |  |  |  |  |  |  |  |  | 
CC1CC2(S(=O)(=O)c3ccccc3)ON1CC2S(=O)(=O)c1ccccc1 (configuration not stated) | > 100 µM | > 100 µM | > 100 µM | > 100 µM | > 100 µM | > 100 µM |  |  |  |  |  |  |  |  |  |  |  |  |  | 
CCSc1ccc([C@@H]2[C@@H](O)C(=O)N2c2cc(OC)c(OC)c(OC)c2)cc1 | 50.4 µM | 12 µM |  | 43.7 µM | > 100 µM | 17.5 µM | 0.433 µM | 15800 nM | 14.1 nM | 14.6 nM | 79.7 µM |  | < 0.01 µM | > 69.2 µM | < 0.01 µM | < 0.01 µM | 39.5 nM | 29.4 µM | < 11.8 nM | 27.9 nM
OC1=CN=COc2ccccc21 | > 100 µM | > 100 µM | > 100 µM | > 100 µM | > 100 µM | > 100 µM |  |  |  |  |  |  |  |  |  |  |  |  |  | 
COc1ccc(/C=C(\NC(=O)c2ccccc2)c2nc3ccccc3[nH]2)cc1OC | > 100 µM | > 100 µM | > 100 µM | > 100 µM | > 100 µM | > 100 µM | > 100 µM |  |  |  |  |  |  |  |  |  |  |  |  | 
CC(=O)/C=C/c1ccc(Nc2c3ccccc3nc3occ(Cl)c23)cc1 | 24.9 µM |  | 22.9 µM | 12.5 µM | 30.2 µM |  |  | 6480 nM | 3320 nM | 2630 nM | 18.8 µM | 4520 nM | 5.75 µM | > 100 µM | 8.71 µM |  | 2630 nM | 9.06 µM |  | 
CCCCCCC(O)CC[C@H]1CCC[C@@H](C)N1 (some centres not stated) | > 100 µM | > 100 µM | > 100 µM | > 100 µM | < 10 µM | > 31.6 µM | > 100 µM |  |  |  |  |  |  |  |  |  |  |  |  | 
O=C1CCC2(c3ccccc3)Nc3ccccc3N12 (configuration not stated) | > 100 µM | > 100 µM | > 100 µM | > 100 µM |  | > 100 µM | > 100 µM |  |  |  |  |  |  |  |  |  |  |  |  | 
C=C(CN1CCc2c([nH]c3ccccc23)C1)c1ccc(C(=O)Nc2ccccc2N)cc1 |  | 3.57 µM | 9.81 µM | 10.4 µM | 30.8 µM | 27.8 µM | 6.88 µM |  | 1740 nM | 1410 nM | 29.9 µM | 2760 nM | 4.75 µM | 23.3 µM | 10.7 µM | 16.6 µM | 2740 nM | 12.9 µM | 2610 nM | 356 nM
COc1ccccc1-c1cc(=O)c2cc(C)c(C)c(C(=O)O)c2o1 | > 100 µM | > 100 µM | > 100 µM | > 100 µM | > 100 µM | > 100 µM | > 100 µM |  |  |  |  |  |  |  |  |  |  |  |  | 
